Test results: ChEMBL document CHEMBL3585249, “Strongylophorines, meroditerpenoids from the marine sponge Petrosia corticata, function as proteasome inhibitors” (Bioorg Med Chem Lett, 2015)

Experiment: Inhibition of human erythrocyte 20S proteasome assessed as reduction in chymotrypsin-like activity pre-incubated for 10 mins before addition of Suc-Leu-Leu-Val-Tyr-MCA fluorogenic substrate by fluorescence based assay

SMILES	IC50 [µM]
C[C@@]12CC[C@@H]3[C@]4(CCC[C@]3(C)C(O)OC4)[C@H]1CC[C@]1(C)Oc3ccc(O)cc3C[C@@H]21 (some centres undefined)	3.6
CO[C@H]1OC[C@]23CCC[C@@]1(C)C2CC[C@]1(C)C3CC[C@]2(C)Oc3ccc(O)cc3CC12 (some centres undefined)	6.6
C[C@]12CCC[C@](C)(C(=O)O)[C@@H]1CC[C@]1(C)[C@@H]2CC[C@]2(C)Oc3ccc(O)cc3C[C@@H]12 [Strongylophorin-3]	9.5
C[C@@]12CC[C@@H]3[C@]4(CCC[C@]3(C)C(=O)OC4)[C@H]1CC[C@](C)(O)[C@H]2Cc1cc(O)ccc1O [strongylophorine-8]	8.4
C[C@@]12CC[C@@H]3[C@]4(CCC[C@]3(C)C(O)OC4)[C@H]1CC[C@](C)(O)[C@H]2Cc1cc(O)ccc1O (some centres undefined)	2.1
CC1(C)CCC[C@]2(C)[C@H]3CC[C@]4(C)Oc5ccc(O)cc5C[C@H]4[C@]3(C)CC[C@@H]12 [Strongylophorin-22]	> 100
C[C@@]12CC[C@@H]3[C@]4(CCC[C@@]3(C)C(=O)OC4)[C@H]1CC[C@]1(C)Oc3ccc(O)cc3C[C@@H]21 [strongylophorine-2]	> 100
CCO[C@H]1OC[C@]23CCC[C@@]1(C)C2CC[C@]1(C)C3CC[C@]2(C)Oc3ccc(O)cc3CC12 (some centres undefined)	9.3
CC(=O)[C@@]1(C)CCC[C@]2(C)[C@H]3CC[C@]4(C)Oc5ccc(O)cc5C[C@H]4[C@]3(C)CC[C@H]21 [strongylophorine-4]	19
